According to patent publication US12037345B2, “Heterobicyclic compounds for inhibiting the activity of SHP2” (TAIHO PHARMACEUTICAL CO., LTD., priority 2018, dated 2024):
Where a name gives a salt, the structure may show the parent alone. Read-outs that look alike come from different tables or passages of the source.

Tests used:
SHP2 = SHP2 (Homo sapiens (Human), UniProt Q06124); assay: SHP2 Biochemical Assay (DiFMUP conversion, pIRS1-activated)
Summary of the method: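 Human SHP2 (10 pM) pre-incubated 30 min with compound and […] pIRS1 activating peptide, then 50 μM DiFMUP added; buffer 25 mM Bis-Tris propane pH 7.0, 150 mM NaCl, 5% DMSO. Fluorescence rate (ex 360/em 450 nm) over 30 min; IC50 by four-parameter fit, averaged across experiments.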

[1] = system: pERK (phospho-p44/42 ERK) in HCC827 cells; assay: Cellular pERK Inhibition Assay, Method A (In-Cell Western); format: cell-based; settings: Homo sapiens
Summary of the method: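 HCC827 cells in RPMI/10% FBS were treated with compounds in serum-free medium (0.2% DMSO final) at 37 °C for the indicated time, in quadruplicate. Fixed cells were immunostained for phospho-p44/42 ERK and read by infrared imaging. Blank-subtracted signal was expressed as % of DMSO control; IC50 from four-parameter logistic fit, averaged across experiments.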

[2] = Table 19, head prints unit as "-M"
[3] = Table 19, head prints unit as "-M", read-out: pERK (IC50) Method A
[4] = Table 20, read-out: pERK (IC50, μM) Method A

Sequence of SHP2 (Q06124 whole entry): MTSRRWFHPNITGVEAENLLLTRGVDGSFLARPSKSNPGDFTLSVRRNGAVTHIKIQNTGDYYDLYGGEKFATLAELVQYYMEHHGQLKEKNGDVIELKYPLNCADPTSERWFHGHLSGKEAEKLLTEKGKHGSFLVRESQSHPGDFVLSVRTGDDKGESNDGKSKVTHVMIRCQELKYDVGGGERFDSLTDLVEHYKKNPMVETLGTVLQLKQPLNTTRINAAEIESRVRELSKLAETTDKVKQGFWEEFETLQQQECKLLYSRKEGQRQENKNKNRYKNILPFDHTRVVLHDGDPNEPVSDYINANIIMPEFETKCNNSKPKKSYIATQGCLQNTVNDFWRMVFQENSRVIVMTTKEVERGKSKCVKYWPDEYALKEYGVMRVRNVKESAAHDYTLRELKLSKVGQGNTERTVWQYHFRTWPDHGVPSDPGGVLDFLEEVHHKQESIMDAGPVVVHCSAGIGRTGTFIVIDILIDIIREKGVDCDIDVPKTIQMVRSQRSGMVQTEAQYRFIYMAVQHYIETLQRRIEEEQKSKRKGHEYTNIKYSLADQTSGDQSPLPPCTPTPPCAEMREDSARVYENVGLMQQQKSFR

SMILES | IC50 (SHP2; [2]) [nM] | IC50 [1, 3] [µM] | IC50 (SHP2; Table 20) [nM] | IC50 [1, 4] [µM]
Cn1cc2c(Cl)c(-c3c[nH]c4nc(N5[C@@H]6CC[C@H]5[C@@H](F)[C@@H](N)C6)n(C)c(=O)c34)ccc2n1 [Example 132, 2-((1S,2S,3S,5R)-3-amino-2-fluoro-8-azabicyclo[3.2.1]octan-8-yl)-5-(4-chloro-2-methyl-2H-indazol-5-yl)-3-methyl-3,7-dihydro-4H-pyrrolo[2,3-d]pyrimidin-4-one] | 15 | 0.25 |  | 
CN(C)C(=O)Cn1nc2ccc(-c3c[nH]c4nc(N5C6CCCC5CNC6)n(C)c(=O)c34)c(Cl)c2c1Cl [Example 82, 2-(5-(2-(3,9-diazabicyclo[3.3.1]nonan-9-yl)-3-methyl-4-oxo-4,7-dihydro-3H-pyrrolo[2,3-d]pyrimidin-5-yl)-3,4-dichloro-2H-indazol-2-yl)-N,N-dimethylacetamide] | 14 | 0.91 |  | 
CC(C)N[C@@H]1C[C@@H]2CC[C@H]1N2c1nc2[nH]nc(-c3ccc4nn(C)c(Cl)c4c3Cl)c2c(=O)n1C [Example 179, 3-(3,4-Dichloro-2-methyl-2H-indazol-5-yl)-6-((1R,2R,4S)-2-(isopropylamino)-7-azabicyclo[2.2.1]heptan-7-yl)-5-methyl-1,5-dihydro-4H-pyrazolo[3,4-d]pyrimidin-4-one] |  |  | 150 | 2.1
Cn1cc2c(Cl)c(-c3c[nH]c4nc(N5C[C@H]6CC[C@@H](C5)[C@@H]6N)n(C)c(=O)c34)ccc2n1 [Example 24, 2-(exo-8-amino-3-azabicyclo[3.2.1]octan-3-yl)-5-(4-chloro-2-methyl-2H-indazol-5-yl)-3-methyl-3,7-dihydro-4H-pyrrolo[2,3-d]pyrimidin-4-one] | 18 | 0.14 |  | 
Cn1cc2c(Cl)c(-c3c[nH]c4nc(N5C[C@H]6CC[C@@H](C5)[C@H]6N)n(C)c(=O)c34)ccc2n1 [Example 25, 2-(endo-8-amino-3-azabicyclo[3.2.1]octan-3-yl)-5-(4-chloro-2-methyl-2H-indazol-5-yl)-3-methyl-3,7-dihydro-4H-pyrrolo[2,3-d]pyrimidin-4-one] | 35 | 0.43 |  | 
Cn1cc2c(Cl)c(-c3c[nH]c4nc(N5CCNCC5)n(C)c(=O)c34)ccc2n1 [Example 39, 5-(4-chloro-2-methyl-2H-indazol-5-yl)-3-methyl-2-(piperazin-1-yl)-3,7-dihydro-4H-pyrrolo[2,3-d]pyrimidin-4-one] | 66 | 0.7 |  | 
Cn1cc2cc(-c3c[nH]c4nc(N5[C@@H]6CC[C@H]5C[C@@H](N)C6)n(C)c(=O)c34)c(F)cc2n1 [Example 72, 2-(endo-3-amino-8-azabicyclo[3.2.1]octan-8-yl)-5-(6-fluoro-2-methyl-2H-indazol-5-yl)-3-methyl-3,7-dihydro-4H-pyrrolo[2,3-d]pyrimidin-4-one] | 99 | 1.9 |  | 
Cn1cc2c(Cl)c(-c3c[nH]c4nc(N5[C@@H]6CC[C@H]5C[C@@](C)(N)C6)n(C)c(=O)c34)ccc2n1 [Example 16, 2-(endo-3-amino-3-methyl-8-azabicyclo[3.2.1]octan-8-yl)-5-(4-chloro-2-methyl-2H-indazol-5-yl)-3-methyl-3,7-dihydro-4H-pyrrolo[2,3-d]pyrimidin-4-one] | 11 | 0.11 |  | 
Cn1c(N2[C@@H]3CC[C@H]2C[C@@H](N)C3)nc2[nH]cc(-c3ccc4nn(C(C)(C)C)cc4c3Cl)c2c1=O [Example 9, 2-(endo-3-amino-8-azabicyclo[3.2.1]octan-8-yl)-5-(2-(tert-butyl)-4-chloro-2H-indazol-5-yl)-3-methyl-3,7-dihydro-4H-pyrrolo[2,3-d]pyrimidin-4-one] | 94 | 1.2 |  | 
CCn1cc2c(Cl)c(-c3n[nH]c4nc(N5C[C@@H]6CC[C@H]5[C@H]6N)n(C)c(=O)c34)ccc2n1 (racemic) [Example 125, rac-6-((1S,4S,7S)-7-amino-2-azabicyclo[2.2.1]heptan-2-yl)-3-(4-chloro-2-ethyl-2H-indazol-5-yl)-5-methyl-1,5-dihydro-4H-pyrazolo[3,4-d]pyrimidin-4-one] | 17 | 0.26 |  | 
Cn1cc2c(Cl)c(-c3c[nH]c4nc(N5CC6CCC(C5)N6)n(C)c(=O)c34)ccc2n1 [Example 28, 2-(3,8-diazabicyclo[3.2.1]octan-3-yl)-5-(4-chloro-2-methyl-2H-indazol-5-yl)-3-methyl-3,7-dihydro-4H-pyrrolo[2,3-d]pyrimidin-4-one] | 19 | 0.68 |  | 
Cn1nc2ccc(-c3n[nH]c4nc(N5[C@H]6CC[C@@H]5[C@](C)(N)C6)n(C)c(=O)c34)c(Cl)c2c1Cl (racemic) [Example 175, rac-6-((1R,2R,4S)-2-amino-2-methyl-7-azabicyclo[2.2.1]heptan-7-yl)-3-(3,4-dichloro-2-methyl-2H-indazol-5-yl)-5-methyl-1,5-dihydro-4H-pyrazolo[3,4-d]pyrimidin-4-one] |  |  | 12 | 0.22
CCn1cc2c(Cl)c(-c3c[nH]c4nc(N5C6CCC5CNC6)n(C)c(=O)c34)ccc2n1 [Example 91, 2-(3,8-diazabicyclo[3.2.1]octan-8-yl)-5-(4-chloro-2-ethyl-2H-indazol-5-yl)-3-methyl-3,7-dihydro-4H-pyrrolo[2,3-d]pyrimidin-4-one] | 12 | 0.34 |  | 
Cn1nc2ccc(-c3n[nH]c4nc(N5[C@@H]6CC[C@H]5C[C@@H](N)C6)n(C)c(=O)c34)c(Cl)c2c1Cl [Example 160, 6-(endo-3-amino-8-azabicyclo[3.2.1]octan-8-yl)-3-(3,4-dichloro-2-methyl-2H-indazol-5-yl)-5-methyl-1,5-dihydro-4H-pyrazolo[3,4-d]pyrimidin-4-one, hydrochloride salt] |  |  | 8.5 | 0.23
CCn1cc2c(Cl)c(-c3n[nH]c4nc(N5[C@@H]6CC[C@H]5C[C@@](C)(N)C6)n(C)c(=O)c34)ccc2n1 [Example 115, 6-(endo-3-amino-3-methyl-8-azabicyclo[3.2.1]octan-8-yl)-3-(4-chloro-2-ethyl-2H-indazol-5-yl)-5-methyl-1,5-dihydro-4H-pyrazolo[3,4-d]pyrimidin-4-one] | 46 | 0.49 |  | 
CCn1cc2c(Cl)c(-c3c[nH]c4nc(N5C6CCCC5CNC6)n(C)c(=O)c34)ccc2n1 [Example 66, 2-(3,9-diazabicyclo[3.3.1]nonan-9-yl)-5-(4-chloro-2-ethyl-2H-indazol-5-yl)-3-methyl-3,7-dihydro-4H-pyrrolo[2,3-d]pyrimidin-4-one] | 8.2 | 0.082 |  | 
Cn1cc2c(Cl)c(-c3c[nH]c4nc(N5CC[C@@H](CN)C5)n(C)c(=O)c34)ccc2n1 [Example 63, (S)-2-(3-(aminomethyl)pyrrolidin-1-yl)-5-(4-chloro-2-methyl-2H-indazol-5-yl)-3-methyl-3,7-dihydro-4H-pyrrolo[2,3-d]pyrimidin-4-one] | 110 | 4.3 |  | 
CCn1cc2c(Cl)c(-c3n[nH]c4nc(N5[C@H]6CC[C@@H]5[C@H](N)C6)n(C)c(=O)c34)ccc2n1 [Example 112, 6-((1R,2R,4S)-2-amino-7-azabicyclo[2.2.1]heptan-7-yl)-3-(4-chloro-2-ethyl-2H-indazol-5-yl)-5-methyl-1,5-dihydro-4H-pyrazolo[3,4-d]pyrimidin-4-one] | 13 | 0.26 |  | 
COCCn1cc2c(Cl)c(-c3c[nH]c4nc(N5[C@H]6CC[C@@H]5[C@H](N)C6)n(C)c(=O)c34)ccc2n1 [Example 178, 2-((1R,2R,4S)-2-amino-7-azabicyclo[2.2.1]heptan-7-yl)-5-(4-chloro-2-(2-methoxyethyl)-2H-indazol-5-yl)-3-methyl-3,7-dihydro-4H-pyrrolo[2,3-d]pyrimidin-4-one] |  |  | 5 | 0.071
Cn1cc2c(Cl)c(-c3c[nH]c4nc(N5CCC6(CCCCN6)CC5)n(C)c(=O)c34)ccc2n1 [Example 41, 5-(4-chloro-2-methyl-2H-indazol-5-yl)-3-methyl-2-(1,9-diazaspiro[5.5]undecan-9-yl)-3,7-dihydro-4H-pyrrolo[2,3-d]pyrimidin-4-one] | 57 | 1.8 |  | 
COc1cnc2ccc(-c3c[nH]c4nc(N5[C@H]6CC[C@@H]5[C@H](N)C6)n(C)c(=O)c34)c(Cl)c2n1 [Example 169, 2-((1R,2R,4S)-2-amino-7-azabicyclo[2.2.1]heptan-7-yl)-5-(5-chloro-3-methoxyquinoxalin-6-yl)-3-methyl-3,7-dihydro-4H-pyrrolo[2,3-d]pyrimidin-4-one] |  |  | 3.3 | 0.073
CN[C@@H]1C[C@@H]2CC[C@H]1N2c1nc2[nH]nc(-c3ccc4ncsc4c3Cl)c2c(=O)n1C [Example 123, 3-(7-chlorobenzo[d]thiazol-6-yl)-5-methyl-6-((1R,2R,4S)-2-(methylamino)-7-azabicyclo[2.2.1]heptan-7-yl)-1,5-dihydro-4H-pyrazolo[3,4-d]pyrimidin-4-one] | 18 | 0.17 |  | 
Cn1cc2c(Cl)c(-c3c[nH]c4nc(N5C6CCC5CNC6)n(C)c(=O)c34)ccc2n1 [Example 1, 2-(3,8-diazabicyclo[3.2.1]octan-8-yl)-5-(4-chloro-2-methyl-2H-indazol-5-yl)-3-methyl-3,7-dihydro-4H-pyrrolo[2,3-d]pyrimidin-4-one] | 14 | 0.14 |  | 
Cn1cc2c(Cl)c(-c3c[nH]c4nc(N5[C@H]6CC[C@@H]5[C@H](F)[C@H](N)C6)n(C)c(=O)c34)ccc2n1 [Example 131, 2-((1R,2R,3R,5S)-3-amino-2-fluoro-8-azabicyclo[3.2.1]octan-8-yl)-5-(4-chloro-2-methyl-2H-indazol-5-yl)-3-methyl-3,7-dihydro-4H-pyrrolo[2,3-d]pyrimidin-4-one] | 28 | 0.46 |  | 
